Test results from paper PMC4914440 (Pharmacological research, 2016).

Tests used:
h5-HT2A = h5-HT2A (Homo sapiens, UniProt P28223); conditions: 10 μM efavirenz; cited from earlier work
[1] = cited from earlier work
muscarinic receptors = conditions: 10 μM; cited from earlier work
M1 muscarinic receptor = M1 muscarinic receptor (Homo sapiens, UniProt P11229)
5-HT3A receptors = molecular target: T1, 5-HT3A receptors (Mus musculus, UniProt P23979); experiment: Whole cell electrophysiology, 5-HT-induced currents, HEK293 cells; conditions: for reversibility of inhibition: 2–3 min washout, data not shown
T1 sequence (P23979 24-489): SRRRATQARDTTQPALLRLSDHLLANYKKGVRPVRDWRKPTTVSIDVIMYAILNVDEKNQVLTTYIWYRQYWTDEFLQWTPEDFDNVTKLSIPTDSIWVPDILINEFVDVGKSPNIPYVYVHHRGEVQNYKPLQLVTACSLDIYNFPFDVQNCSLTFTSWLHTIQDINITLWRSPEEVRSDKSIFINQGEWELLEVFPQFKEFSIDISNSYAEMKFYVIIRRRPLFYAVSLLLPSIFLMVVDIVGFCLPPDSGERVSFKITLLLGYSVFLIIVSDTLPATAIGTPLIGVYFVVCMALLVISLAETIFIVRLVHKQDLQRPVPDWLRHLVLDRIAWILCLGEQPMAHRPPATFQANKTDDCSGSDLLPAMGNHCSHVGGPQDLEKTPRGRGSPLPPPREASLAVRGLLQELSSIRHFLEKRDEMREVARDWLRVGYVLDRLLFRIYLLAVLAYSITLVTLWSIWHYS

h5-HT2C = molecular target: T2, h5-HT2C (Homo sapiens, UniProt P28335); conditions: 10 μM efavirenz; cited from earlier work
T2 sequence (P28335 33-458): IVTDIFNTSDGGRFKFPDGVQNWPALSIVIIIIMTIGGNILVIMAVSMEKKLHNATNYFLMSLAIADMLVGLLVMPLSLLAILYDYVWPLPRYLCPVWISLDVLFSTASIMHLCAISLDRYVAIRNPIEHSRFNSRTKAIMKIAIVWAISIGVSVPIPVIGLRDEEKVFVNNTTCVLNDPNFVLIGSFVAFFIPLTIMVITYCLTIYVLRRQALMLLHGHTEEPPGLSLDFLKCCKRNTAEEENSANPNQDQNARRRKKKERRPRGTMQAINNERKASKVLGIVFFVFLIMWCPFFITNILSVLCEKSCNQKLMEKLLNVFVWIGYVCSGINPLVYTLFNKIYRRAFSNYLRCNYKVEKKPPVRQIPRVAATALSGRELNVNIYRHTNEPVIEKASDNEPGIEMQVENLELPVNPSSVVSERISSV

Sequence of M1 muscarinic receptor (P11229 whole entry): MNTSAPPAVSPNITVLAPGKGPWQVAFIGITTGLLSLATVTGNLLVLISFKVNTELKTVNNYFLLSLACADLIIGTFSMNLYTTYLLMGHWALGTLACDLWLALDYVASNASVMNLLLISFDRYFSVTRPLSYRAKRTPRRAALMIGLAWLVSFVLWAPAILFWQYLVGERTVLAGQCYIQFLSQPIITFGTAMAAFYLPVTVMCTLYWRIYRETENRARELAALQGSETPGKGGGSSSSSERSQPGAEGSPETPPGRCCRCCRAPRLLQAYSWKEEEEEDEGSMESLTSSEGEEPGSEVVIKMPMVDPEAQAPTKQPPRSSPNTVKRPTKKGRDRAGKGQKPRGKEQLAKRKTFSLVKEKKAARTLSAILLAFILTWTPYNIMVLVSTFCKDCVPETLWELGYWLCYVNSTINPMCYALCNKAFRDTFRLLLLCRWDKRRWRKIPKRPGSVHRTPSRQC
Sequence of h5-HT2A (P28223 whole entry): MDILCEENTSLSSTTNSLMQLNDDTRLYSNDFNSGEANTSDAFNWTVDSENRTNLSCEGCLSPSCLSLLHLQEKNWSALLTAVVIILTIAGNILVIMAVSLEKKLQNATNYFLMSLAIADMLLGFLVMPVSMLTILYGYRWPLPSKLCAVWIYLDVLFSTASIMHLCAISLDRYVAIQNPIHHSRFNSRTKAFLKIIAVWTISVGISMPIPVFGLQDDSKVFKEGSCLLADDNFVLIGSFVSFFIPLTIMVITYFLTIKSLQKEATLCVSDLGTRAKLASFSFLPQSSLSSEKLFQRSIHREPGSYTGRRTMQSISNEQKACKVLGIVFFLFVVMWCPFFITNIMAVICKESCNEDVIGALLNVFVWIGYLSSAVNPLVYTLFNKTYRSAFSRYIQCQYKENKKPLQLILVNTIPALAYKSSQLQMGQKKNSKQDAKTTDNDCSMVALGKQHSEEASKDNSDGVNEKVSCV

O=C1Nc2ccc(Cl)cc2[C@@](C#CC2CC2)(C(F)(F)F)O1 [efavirenz, (4S)-6-chloro-4-(2-cyclopropylethynyl)-4-(trifluoromethyl)-2,4-dihydro-1H-3,1-benzoxazin-2-one]
displacement of specifically bound radioligand (h5-HT2A): ≥ 75% | mean concentration in CSF ([1]; across studies): approximately 44 nM | CSF levels as % of plasma concentrations [1]: 0.52% | interaction (muscarinic receptors): did not have high affinity interactions | stimulation of Gq-coupling alone (M1 muscarinic receptor): fails to stimulate | concentration suppressing the carbachol Gq response (M1 muscarinic receptor; EC50 concentration of carbachol): ≥ 10 µM | IC50 (5-HT3A receptors): 4.9 ± 0.7 µM | Hill coefficient (5-HT3A receptors; 0.6 μM 5-HT (EC30)): 1.2 ± 0.19 | effect alone (5-HT3A receptors; 10 μM, n = 5, data not shown): had no effect | inhibition of steady-state currents (5-HT3A receptors; 30 μM): complete inhibition | reversibility of inhibition (5-HT3A receptors; 30 μM): partially recovered | reversibility of inhibition (5-HT3A receptors; up to 10 μM): completely reversible | displacement of specifically bound radioligand (h5-HT2C): ≥ 75%
